Common to all, as to assay type: cell-based
Test [1] deals with S. pneumoniae ATCC 700904. Description: In vitro antibacterial activity, MIC by microbroth dilution method (CLSI method), test bacteria symbol C. Particulars: Streptococcus pneumoniae, ATCC700904, read-out: MIC (minimum inhibitory concentration), test bacteria C. As for the experimental part: (§1) In vitro antibacterial activities of the compounds of the present invention against various test bacteria were measured according to the microbroth dilution method (CLSI method). As Comparative agent 1, clarithromycin was used, and the results for typical exemplary compounds are shown as MIC values (minimum inhibitory concentration, μg/ml) in Table 19.

The next test relates to S. pneumoniae ATCC 49619. Description: In vitro antibacterial activity, MIC by microbroth dilution method (CLSI method), test bacteria symbol B. The settings on record: Streptococcus pneumoniae, ATCC49619, read-out: MIC (minimum inhibitory concentration), test bacteria B. As for the experimental part: as §1
In the next test the test system is H. influenzae ATCC 43095. Nature of the test: In vitro antibacterial activity, MIC by microbroth dilution method (CLSI method), test bacteria symbol A. Particulars: Haemophilus influenzae, ATCC43095, read-out: MIC (minimum inhibitory concentration), test bacteria A. As for the experimental part: as §1

Values after ≈ are worked out from the molar mass of the structure shown. Some results are limits rather than exact numbers.

Regarding `CC[C@H]1OC(=O)[C@H](C)[C@@H](O[C@H]2C[C@@](C)(OC)[C@@H](O)[C@H](C)O2)[C@H](C)[C@@H](O[C@@H]2O[C@H](C)C[C@H](N(C)C)[C@H]2O)[C@](C)(OC)C[C@@H](C)C(=O)[C@H](C)[C@@H](O)[C@]1(C)O` [Comparative agent 1, clarithromycin, reference compound], the MIC in test [1] was more than 128 µg/mL; in the test with S. pneumoniae ATCC 49619, 0.03 µg/mL (≈ 0.0401 µM); in the test on H. influenzae ATCC 43095, 4 µg/mL (≈ 5.35 µM).
For the compound `CO[C@@]1(C)C[C@@H](C)[C@H](O)[C@H](C)N2C[C@@H](COc3cccc(C(C)(C)C)c3)[C@H](C2)OC(=O)C(C)(Cl)C(=O)[C@H](C)[C@H]1O[C@@H]1O[C@H](C)C[C@H](N(C)C)[C@H]1O` (stereo partly drawn) [Example522], the MIC in test [1] was more than 16 µg/mL; with S. pneumoniae ATCC 49619 it was 8 µg/mL (≈ 10.8 µM); in the test on H. influenzae ATCC 43095, 16 µg/mL (≈ 21.6 µM).
Regarding `CO[C@]1(C)C[C@H](O[C@H]2[C@H](C)[C@@H](O[C@@H]3O[C@H](C)C[C@H](N(C)C)[C@H]3O)[C@@](C)(OC)C[C@@H](C)[C@H](O)[C@H](C)N3C[C@@H](COCc4ccccc4)[C@H](C3)OC(=O)[C@@H]2C)O[C@@H](C)[C@@H]1O` [Example523], the MIC in test [1] was more than 128 µg/mL; in the test with S. pneumoniae ATCC 49619, 0.12 µg/mL (≈ 0.146 µM); with H. influenzae ATCC 43095 it was 4 µg/mL (≈ 4.86 µM).
For `CO[C@]1(C)C[C@H](O[C@H]2[C@H](C)[C@@H](O[C@@H]3O[C@H](C)C[C@H](N(C)C)[C@H]3O)[C@@](C)(OC)C[C@@H](C)[C@H](O)[C@H](C)N3CCC[C@@H](C3)OC(=O)[C@@H]2C)O[C@@H](C)[C@@H]1O` [Example525], in that order: more than 128 µg/mL, 0.25 µg/mL (≈ 0.349 µM) and 0.5 µg/mL (≈ 0.697 µM).
